{"source": "patent US4880817A", "about": "“O-functionalized derivatives of substituted isoquinolin-3-ols having cardiotonic and/or phosphodiesterase fraction III inhibiting properties and/or renal vasodilating properties” (Ortho Pharmaceutical Corporation, priority 1987, dated 1989)", "test_system": "adult mongrel dogs", "assay": "Renal vasodilating activity in anesthetized dogs", "assay_type": "in vivo, mongrel dog", "settings": "for change in vivo at 1.34 mg/kg / change in vivo at 6.2 mg/kg / change in vivo at 1.2 mg/kg: Canis lupus familiaris; for change in vivo at 1.34 mg/kg: dose 1.34 mpk", "procedure": "Goldberg et al., J. Pharmacol. Exp. Ther., 163, 188 (1968), performed an investigation of the structural requirements for dopamine-like renal vasodilation of phenethylamines and apomorphine. The following procedure is a variation of the assay described in that report.\nAdult mongrel dogs were anesthetized and surgically prepared for electromagnetic measurement of renal artery blood flow. A carotid artery was cannulated for measuring arterial blood pressure and drugs were administered intravenously or intraarterially (via the renal artery). Heart rate was monitored with a cardiotachometer. Renal vascular resistance was calculated as the ratio of mean arterial blood pressure to renal artery blood flow. Dopamine was infused intravenously at 3 μg/kg/min for ten minutes (at an infusion rate of about 1 ml/min) to determine responsiveness of each dog to renal dopamine receptor stimulation. Cumulative dose-response data were obtained by infusing a compound of this invention at progressively increasing (usually three-fold) infusion rates, each dose being infused for five minutes. The maximum percent change from pre-drug control in renal artery blood flow (or in renal vascular resistance) was determined for each infusion dose.\nRBF, RVR, MABP, and HR values are percent changes in renal blood flow, renal vascular resistance, mean arterial blood pressure, and heart rate, respectively, relative to control values.", "key": {"[1]": {"settings": "dose 6.2 mpk, relative to controls, read-out: HR: percent change in heart rate"}, "[2]": {"settings": "dose 6.2 mpk, relative to controls, read-out: MABP: percent change in mean arterial blood pressure"}, "[3]": {"settings": "dose 6.2 mpk, relative to controls, read-out: RBF: percent change in renal blood flow"}, "[4]": {"settings": "dose 6.2 mpk, relative to controls, read-out: RVR: percent change in renal vascular resistance"}, "[5]": {"settings": "read-out: HR: percent change in heart rate, dose 6.2 mpk, relative to controls"}, "[6]": {"settings": "read-out: MABP: percent change in mean arterial blood pressure, dose 6.2 mpk, relative to controls"}, "[7]": {"settings": "read-out: RBF: percent change in renal blood flow, dose 6.2 mpk, relative to controls"}, "[8]": {"settings": "read-out: RVR: percent change in renal vascular resistance, dose 6.2 mpk, relative to controls"}, "[9]": {"settings": "dose 1.2 mpk, relative to controls, read-out: HR: percent change in heart rate"}, "[10]": {"settings": "dose 1.2 mpk, relative to controls, read-out: MABP: percent change in mean arterial blood pressure"}, "[11]": {"settings": "dose 1.2 mpk, relative to controls, read-out: RBF: percent change in renal blood flow"}, "[12]": {"settings": "dose 1.2 mpk, relative to controls, read-out: RVR: percent change in renal vascular resistance"}, "[13]": {"settings": "dose 1.2 mpk, relative to controls, 1.2 mg/kg"}, "[14]": {"settings": "read-out: HR: percent change in heart rate, dose 1.2 mpk, relative to controls"}, "[15]": {"settings": "read-out: MABP: percent change in mean arterial blood pressure, dose 1.2 mpk, relative to controls"}, "[16]": {"settings": "read-out: RBF: percent change in renal blood flow, dose 1.2 mpk, relative to controls"}, "[17]": {"settings": "read-out: RVR: percent change in renal vascular resistance, dose 1.2 mpk, relative to controls"}}, "note": "Where two headings read alike, the source gives them in different places."}
{"compound": "COc1cc2c(C)nc(OC(C)=O)c(Br)c2cc1OC", "note": "[Cmpd 1]", "values": [{"measurement": "change in vivo at 1.34 mg/kg", "setting": "relative to controls, read-out: HR: percent change in heart rate", "value": 37, "unit": "%"}, {"measurement": "change in vivo at 1.34 mg/kg", "setting": "relative to controls, read-out: MABP: percent change in mean arterial blood pressure", "value": -21, "unit": "%"}, {"measurement": "change in vivo at 1.34 mg/kg", "setting": "relative to controls, read-out: RBF: percent change in renal blood flow", "value": 22, "unit": "%"}, {"measurement": "change in vivo at 1.34 mg/kg", "setting": "relative to controls, read-out: RVR: percent change in renal vascular resistance", "value": 35, "unit": "%"}]}
{"compound": "COc1cc2c(C)nc(OC(C)=O)c([N+](=O)[O-])c2cc1OC", "note": "[Cmpd 2, 3-Acetoxy-6,7-dimethoxy-1-methyl-4-nitroisoquinoline]", "values": [{"measurement": "change in vivo at 6.2 mg/kg", "setting": "[1]", "value": -2, "unit": "%"}, {"measurement": "change in vivo at 6.2 mg/kg", "setting": "[2]", "value": -8, "unit": "%"}, {"measurement": "change in vivo at 6.2 mg/kg", "setting": "[3]", "value": 17, "unit": "%"}, {"measurement": "change in vivo at 6.2 mg/kg", "setting": "[4]", "value": -16, "unit": "%"}]}
{"compound": "CCOc1cc2c(C)nc(OC(=O)C(C)C)c([N+](=O)[O-])c2cc1OC", "note": "[Cmpd 5]", "values": [{"measurement": "change in vivo at 6.2 mg/kg", "setting": "[1]", "value": 36, "unit": "%"}, {"measurement": "change in vivo at 6.2 mg/kg", "setting": "[2]", "value": -10, "unit": "%"}, {"measurement": "change in vivo at 6.2 mg/kg", "setting": "[3]", "value": 42, "unit": "%"}, {"measurement": "change in vivo at 6.2 mg/kg", "setting": "[4]", "value": -36, "unit": "%"}]}
{"compound": "CCOc1cc2c(C)nc(OS(C)(=O)=O)c([N+](=O)[O-])c2cc1OC", "note": "[Cmpd 6]", "values": [{"measurement": "change in vivo at 6.2 mg/kg", "setting": "[1]", "value": -10, "unit": "%"}, {"measurement": "change in vivo at 6.2 mg/kg", "setting": "[2]", "value": -2, "unit": "%"}, {"measurement": "change in vivo at 6.2 mg/kg", "setting": "[3]", "value": 38, "unit": "%"}, {"measurement": "change in vivo at 6.2 mg/kg", "setting": "[4]", "value": -28, "unit": "%"}]}
{"compound": "COc1cc2c(C)nc(OC(=O)c3ccc(Cl)cc3)c([N+](=O)[O-])c2cc1OC", "note": "[Cmpd 15]", "values": [{"measurement": "change in vivo at 6.2 mg/kg", "setting": "[1]", "value": 3, "unit": "%"}, {"measurement": "change in vivo at 6.2 mg/kg", "setting": "[2]", "value": -1, "unit": "%"}, {"measurement": "change in vivo at 6.2 mg/kg", "setting": "[3]", "value": 15, "unit": "%"}, {"measurement": "change in vivo at 6.2 mg/kg", "setting": "[4]", "value": -14, "unit": "%"}]}
{"compound": "COc1cc2c(C)nc(OS(C)(=O)=O)c([N+](=O)[O-])c2cc1OC", "note": "[Cmpd 16]", "values": [{"measurement": "change in vivo at 6.2 mg/kg", "setting": "[1]", "value": 19, "unit": "%"}, {"measurement": "change in vivo at 6.2 mg/kg", "setting": "[2]", "value": -6, "unit": "%"}, {"measurement": "change in vivo at 6.2 mg/kg", "setting": "[3]", "value": 12, "unit": "%"}, {"measurement": "change in vivo at 6.2 mg/kg", "setting": "[4]", "value": -16, "unit": "%"}]}
{"compound": "COc1cc2c(C)nc(OC(C)=O)c(N(C(C)=O)C(C)=O)c2cc1OC", "note": "[Cmpd 17, 4-N,N-Diacetamido-3-acetoxy-6,7-dimethoxy-1-methylisoquinoline]", "values": [{"measurement": "change in vivo at 6.2 mg/kg", "setting": "[1]", "value": -12, "unit": "%"}, {"measurement": "change in vivo at 6.2 mg/kg", "setting": "[2]", "value": 13, "unit": "%"}, {"measurement": "change in vivo at 6.2 mg/kg", "setting": "[3]", "value": 63, "unit": "%"}, {"measurement": "change in vivo at 6.2 mg/kg", "setting": "[4]", "value": -24, "unit": "%"}]}
{"compound": "CCOc1cc2c([N+](=O)[O-])c(OC(=O)N(C)C)nc(C)c2cc1OC", "note": "[Cmpd 24]", "values": [{"measurement": "change in vivo at 6.2 mg/kg", "setting": "[5]", "value": 53, "unit": "%"}, {"measurement": "change in vivo at 6.2 mg/kg", "setting": "[6]", "value": -12, "unit": "%"}, {"measurement": "change in vivo at 6.2 mg/kg", "setting": "[7]", "value": 22, "unit": "%"}, {"measurement": "change in vivo at 6.2 mg/kg", "setting": "[8]", "value": -28, "unit": "%"}]}
{"compound": "COc1ccc(NC(=O)Nc2c(OC(C)=O)nc(C)c3cc(OC)c(OC)cc23)cc1", "note": "[Cmpd 32]", "values": [{"measurement": "change in vivo at 1.2 mg/kg", "setting": "[9]", "value": -23, "unit": "%"}, {"measurement": "change in vivo at 1.2 mg/kg", "setting": "[10]", "value": 1, "unit": "%"}, {"measurement": "change in vivo at 1.2 mg/kg", "setting": "[11]", "value": 6, "unit": "%"}, {"measurement": "change in vivo at 1.2 mg/kg", "setting": "[12]", "value": -4, "unit": "%"}]}
{"compound": "CCCCNC(=O)Nc1c(OC(=O)N(CC)CC)nc(C)c2cc(OC)c(OC)cc12", "note": "[Cmpd 38, 4-[N'-(n-Butylureido)]-3-diethylcarbamyloxy-6,7-dimethoxy-1-methylisoquinoline]", "values": [{"measurement": "change in vivo at 6.2 mg/kg", "setting": "[5]", "value": -4, "unit": "%"}, {"measurement": "change in vivo at 6.2 mg/kg", "setting": "[6]", "value": 5, "unit": "%"}, {"measurement": "change in vivo at 6.2 mg/kg", "setting": "[7]", "value": 34, "unit": "%"}, {"measurement": "change in vivo at 6.2 mg/kg", "setting": "[8]", "value": -21, "unit": "%"}]}
{"compound": "C=CCNC(=O)Nc1c(OC(=O)N(C)C)nc(C)c2cc(OC)c(OC)cc12", "note": "[Cmpd 40]", "values": [{"measurement": "MABP: percent change in mean arterial blood pressure", "setting": "[13]", "value": -1, "unit": "percent change"}, {"measurement": "RBF: percent change in renal blood flow", "setting": "[13]", "value": "+9 percent change"}, {"measurement": "RVR: percent change in renal vascular resistance", "setting": "[13]", "value": -9, "unit": "percent change"}]}
{"compound": "CCCCNC(=O)Nc1c(OC(=O)N(CC)CC)nc(C)c2cc(OCC)c(OC)cc12", "note": "[Cmpd 45]", "values": [{"measurement": "change in vivo at 1.2 mg/kg", "setting": "[14]", "value": 11, "unit": "%"}, {"measurement": "change in vivo at 1.2 mg/kg", "setting": "[15]", "value": 12, "unit": "%"}, {"measurement": "change in vivo at 1.2 mg/kg", "setting": "[16]", "value": 15, "unit": "%"}, {"measurement": "change in vivo at 1.2 mg/kg", "setting": "[17]", "value": -2, "unit": "%"}]}
{"compound": "CCN(CC)C(=O)Oc1nc(C)c2cc(OC)c(OC)cc2c1NC(N)=O", "note": "[Cmpd 47, 3-Diethylcarbamyloxy-6,7-dimethoxy-1-methyl-4-ureidoisoquinoline]", "values": [{"measurement": "change in vivo at 1.2 mg/kg", "setting": "[14]", "value": -3, "unit": "%"}, {"measurement": "change in vivo at 1.2 mg/kg", "setting": "[15]", "value": 11, "unit": "%"}, {"measurement": "change in vivo at 1.2 mg/kg", "setting": "[16]", "value": 17, "unit": "%"}, {"measurement": "change in vivo at 1.2 mg/kg", "setting": "[17]", "value": -4, "unit": "%"}]}
{"compound": "C=CCNC(=O)N(C(=O)NCC=C)c1c(OC(=O)N(CC)CC)nc(C)c2cc(OC)c(OC)cc12", "note": "[Cmpd 49]", "values": [{"measurement": "change in vivo at 1.2 mg/kg", "setting": "[9]", "value": -6, "unit": "%"}, {"measurement": "change in vivo at 1.2 mg/kg", "setting": "[10]", "value": 2, "unit": "%"}, {"measurement": "change in vivo at 1.2 mg/kg", "setting": "[11]", "value": 14, "unit": "%"}, {"measurement": "change in vivo at 1.2 mg/kg", "setting": "[12]", "value": -8, "unit": "%"}]}
{"compound": "C=CCNC(=O)Nc1c(OC(=O)N(CC)CC)nc(C)c2cc(OC)c(OC)cc12", "note": "[Cmpd 50]", "values": [{"measurement": "change in vivo at 1.2 mg/kg", "setting": "[14]", "value": -2, "unit": "%"}, {"measurement": "change in vivo at 1.2 mg/kg", "setting": "[15]", "value": 0, "unit": "%"}, {"measurement": "change in vivo at 1.2 mg/kg", "setting": "[16]", "value": 20, "unit": "%"}, {"measurement": "change in vivo at 1.2 mg/kg", "setting": "[17]", "value": -16, "unit": "%"}]}
